Data as given in ChEMBL document CHEMBL5543111, “Uncovering PROTAC Sensitivity and Efficacy by Multidimensional Proteome Profiling: A Case for STAT3” (J Med Chem, 2024).
Active and inactive are the calls of the source.

Legend:
[1] = biological target: Protein cereblon/Bromodomain-containing protein 2 (Homo sapiens) (UniProt P25440+Q96SW2); test: PROTAC activity at CRBN/BRD2 in human A549 cells assessed as degradation of BRD2 protein level at 100 nM incubated for 24 hrs; format: cell-based
[2] = biological target: Protein cereblon/Bromodomain-containing protein 3 (Homo sapiens) (UniProt Q15059+Q96SW2); test: PROTAC activity at CRBN/BRD3 in human A549 cells assessed as degradation of BRD3 protein level at 100 nM incubated for 24 hrs; format: cell-based
[3] = biological target: Protein cereblon/Bromodomain-containing protein 4 (Homo sapiens) (UniProt O60885+Q96SW2); test: PROTAC activity at CRBN/BRD4 in human A549 cells assessed as degradation of BRD4 protein level at 100 nM incubated for 24 hrs; format: cell-based
[4] = test system: A549; test: Upregulation of p53 protein expression in human A549 cells at 10 to 100 nM; format: functional, cell-based; conditions: dose 10-100 nM, time 3-24 hrs, TDE = time-dependent effect
[5] = test system: A549; test: Upregulation of p53 protein expression in human A549 cells measured after 3 to 24 hrs; format: functional, cell-based; conditions: dose 10-100 nM, time 3-24 hrs
[6] = test system: A549; test: Upregulation of p21 protein expression in human A549 cells at 100 nM measured after 24 hrs; format: functional, cell-based

Measured: Activity

Sequence of Protein cereblon/Bromodomain-containing protein 4 (Homo sapiens) (Q96SW2 whole entry, looked up, other chains not shown): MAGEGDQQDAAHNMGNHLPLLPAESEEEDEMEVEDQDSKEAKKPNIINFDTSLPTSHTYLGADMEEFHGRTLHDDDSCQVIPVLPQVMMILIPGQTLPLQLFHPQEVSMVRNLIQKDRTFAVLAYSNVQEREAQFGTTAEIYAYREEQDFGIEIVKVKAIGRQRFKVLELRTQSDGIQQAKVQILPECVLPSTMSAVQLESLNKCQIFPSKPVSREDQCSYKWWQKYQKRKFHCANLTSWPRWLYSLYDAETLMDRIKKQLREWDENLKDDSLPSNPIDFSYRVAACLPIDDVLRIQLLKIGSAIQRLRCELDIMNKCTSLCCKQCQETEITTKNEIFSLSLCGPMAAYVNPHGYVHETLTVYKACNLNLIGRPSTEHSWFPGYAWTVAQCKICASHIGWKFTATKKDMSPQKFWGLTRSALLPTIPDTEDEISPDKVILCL
Sequence of Protein cereblon/Bromodomain-containing protein 2 (Homo sapiens) (P25440 whole entry, looked up): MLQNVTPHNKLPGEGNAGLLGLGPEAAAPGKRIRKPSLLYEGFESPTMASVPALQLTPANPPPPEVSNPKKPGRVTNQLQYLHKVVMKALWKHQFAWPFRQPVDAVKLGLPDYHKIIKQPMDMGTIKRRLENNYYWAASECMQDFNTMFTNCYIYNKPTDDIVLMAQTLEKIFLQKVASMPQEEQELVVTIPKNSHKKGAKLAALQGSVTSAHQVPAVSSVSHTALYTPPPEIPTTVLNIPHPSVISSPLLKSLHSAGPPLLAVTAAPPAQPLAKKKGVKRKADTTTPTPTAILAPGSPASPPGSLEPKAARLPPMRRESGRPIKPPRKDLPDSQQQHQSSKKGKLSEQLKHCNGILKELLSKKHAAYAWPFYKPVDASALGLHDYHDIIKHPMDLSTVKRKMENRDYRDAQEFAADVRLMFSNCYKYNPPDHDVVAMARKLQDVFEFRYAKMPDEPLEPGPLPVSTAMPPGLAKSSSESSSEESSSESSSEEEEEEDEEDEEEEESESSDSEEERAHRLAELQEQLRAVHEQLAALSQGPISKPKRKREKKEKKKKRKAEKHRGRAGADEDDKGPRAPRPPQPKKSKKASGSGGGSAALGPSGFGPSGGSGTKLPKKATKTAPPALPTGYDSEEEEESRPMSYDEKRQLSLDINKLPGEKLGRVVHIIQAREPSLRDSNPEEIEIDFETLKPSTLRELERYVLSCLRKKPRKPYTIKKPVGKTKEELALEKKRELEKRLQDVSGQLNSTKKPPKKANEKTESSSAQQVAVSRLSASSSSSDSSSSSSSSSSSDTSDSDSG
Sequence of Protein cereblon/Bromodomain-containing protein 2 (Homo sapiens) (Q96SW2 whole entry, looked up): as the sequence (Q96SW2 whole entry, looked up, other chains not shown) above
Sequence of Protein cereblon/Bromodomain-containing protein 3 (Homo sapiens) (Q15059 2-726 limits assumed): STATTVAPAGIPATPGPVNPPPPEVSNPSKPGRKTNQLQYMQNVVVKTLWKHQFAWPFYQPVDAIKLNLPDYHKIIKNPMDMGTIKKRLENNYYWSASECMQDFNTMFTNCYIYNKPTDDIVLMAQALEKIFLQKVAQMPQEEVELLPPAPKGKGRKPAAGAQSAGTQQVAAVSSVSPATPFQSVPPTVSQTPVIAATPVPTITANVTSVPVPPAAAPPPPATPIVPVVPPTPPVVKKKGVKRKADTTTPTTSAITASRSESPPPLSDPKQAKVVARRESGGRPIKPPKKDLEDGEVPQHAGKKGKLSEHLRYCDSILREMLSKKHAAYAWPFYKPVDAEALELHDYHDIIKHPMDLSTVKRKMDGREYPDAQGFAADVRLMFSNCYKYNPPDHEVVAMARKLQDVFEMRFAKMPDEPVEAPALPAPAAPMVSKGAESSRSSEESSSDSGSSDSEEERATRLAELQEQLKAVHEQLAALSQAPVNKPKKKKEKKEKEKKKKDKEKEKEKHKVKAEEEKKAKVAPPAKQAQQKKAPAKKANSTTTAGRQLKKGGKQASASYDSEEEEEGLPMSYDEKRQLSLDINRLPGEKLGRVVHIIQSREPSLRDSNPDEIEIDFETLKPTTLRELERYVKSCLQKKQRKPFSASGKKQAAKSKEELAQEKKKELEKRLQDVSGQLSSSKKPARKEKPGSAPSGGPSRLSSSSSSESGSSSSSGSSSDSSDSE
Sequence of Protein cereblon/Bromodomain-containing protein 3 (Homo sapiens) (Q96SW2 whole entry partner): as the sequence (Q96SW2 whole entry, looked up, other chains not shown) above

CCn1nc(C2CC2)cc1Nc1nc(C(=O)NCCCCCc2cccc3c2CN(C2CCC(=O)NC2=O)C3=O)nc2[nH]c3cc(-c4c(C)noc4C)c(OC)cc3c12 (stereo unspecified)
active: [1] | [2] | [3] | [4] Tde | [5] Dose-Dependent Effect | [6]
